Experimental data reported in patent US20110245316A1, “PREVENTION OR DELAY OF ONSET OF ORAL MUCOSITIS” (SCICLONE PHARMACEUTICALS, INC., priority 2010, published 2011).
Entries after “also recorded” stand apart in the source; their conditions may differ.

Tested on: oral mucositis in patients receiving chemoradiation for head and neck cancer
Test: Phase 2 randomized, double-blind, placebo-controlled trial: onset of oral mucositis (WHO OM Scale) in patients receiving CT/RT
Assay type: in vivo, human
Settings: for gastrostomy tube placement and use / unplanned office and emergency room visits: higher dose (0.1 mg/kg); for severe OM, percent of patients: subcutaneous 0.1 mg/kg (HD)
Source text: OM is a painful, debilitating, and costly toxicity of different chemoradiotherapy (CT/RT) regimens used to treat head and neck cancer. This trial is a phase 2, randomized, double-blind, dose-ranging, placebo-controlled three-arm study in patients receiving CT/RT for the treatment of head and neck cancer, to assess the safety and tolerability of γ-D-glutamyl-L-tryptophan (SCV-07) as well as its efficacy in delaying the onset of severe OM as assessed by the WHO Oral Mucositis Scale.
The WHO OM Scale is the standard, validated instrument used in clinical trials to measure OM: Grade 0=none; Grade 1=erythema and soreness, no ulcers; Grade 2=ulcers, able to eat a solid diet; Grade 3=ulcers; requires a liquid diet; Grade 4=ulcers, not able to tolerate a solid or liquid diet, requires IV or tube feeding.
59 eligible patients with recently diagnosed, treatment naïve, pathologically-confirmed, non-metastatic squamous cell carcinoma of the oral cavity, oropharynx, hypopharynx or larynx were enrolled and treated with a concomitant regimen of CT/RT consisting of a continuous course of external beam irradiation (IMRT eligible) with a minimum cumulative dose of 50 Gray (Gy) and cisplatin monotherapy administered using standard weekly or tri-weekly dosing regimens (80-100 mg/m^2 administered on Days 0, 21 and 42) or weekly (30-40 mg/m^2). At least two ‘at risk’ intraoral sites were included in the radiation fields and received a cumulative RT dose of at least 50 Gy. Subjects were equally randomized to receive either placebo or one of two doses of γ-D-glutamyl-L-tryptophan (0.02 or 0.1 mg/kg) on each radiation day for up to 7 weeks.
Tables 2-7 summarize the statistics for the Full Analysis Set “FAS” (57 subjects), and the completer population (52 subjects), with respect to delay of onset of severe oral mucositis. Also see FIGS. 1 and 2.
SCV-07 efficacy, dosing and scheduling parameters were assessed in hamster models of acute, fractionated and concomitant chemoradiation (CRT). […] A multicenter, prospective, blinded, randomized trial evaluated SCV-07's ability to alter OM in CRT-treated HNC patients (n=57). Cytokine and gene microarray analyses were performed for samples obtained before and on the last radiation day.

[1] = 0.10 mg/kg, Completer Population
[2] = 0.10 mg/kg, Completer Population, at 30-<35 Gy
[3] = 0.10 mg/kg, Completer Population, at 35-<40 Gy
[4] = 0.10 mg/kg, Completer Population, at 40-<45 Gy
[5] = 0.10 mg/kg, Completer Population, at 45-<50 Gy
[6] = 0.10 mg/kg, Completer Population, at 50-<55 Gy
[7] = 0.10 mg/kg, Completer Population, at 55-<60 Gy
[8] = 0.10 mg/kg, Completer Population, at 65-<70 Gy
[9] = 0.10 mg/kg, Completer Population, at ≧70 Gy
[10] = listed as γ-D-glutamyl-L-tryptophan, 0.1 mg/kg

## N[C@H](CCC(=O)N[C@@H](Cc1c[nH]c2ccccc12)C(=O)O)C(=O)O [SCV-07, γ-D-glutamyl-L-tryptophan]
[1]
  Cumulative Dose of RT (Gy) at Initial Onset of Ulcerative OM, Median: 26 Gy
  Cumulative Dose of RT (Gy) at Initial Onset of Ulcerative OM, Min: 8 Gy
  Cumulative Dose of Radiation (Gy) Prior to Initial Occurrence of Severe OM (Delay to Onset of Severe OM), K-M Estimate, Mean (SE): 56 (3.8) Gy
  Cumulative Dose of Radiation (Gy) Prior to Initial Occurrence of Severe OM, K-M Estimate, Median (95% CI): 57 (51, NA) Gy
  Cumulative Dose of Radiation (Gy) Prior to Initial Occurrence of Ulcerative OM (Delay to Onset of Ulcerative OM), K-M Estimate, Mean (SE): 30 (3.7) Gy
  Cumulative Dose of Radiation (Gy) Prior to Initial Occurrence of Ulcerative OM, K-M Estimate, 25%-75%: 19-46 Gy
  Cumulative Dose of Radiation (Gy) Prior to Initial Occurrence of Ulcerative OM, K-M Estimate, Median (95% CI): 26 (19, 41) Gy
  Time (Days) to Initial Occurrence of Sever OM, K-M Estimate, Mean (SE): 38 (2.5) Days
  Time (Days) to Initial Occurrence of Sever OM, K-M Estimate, Median (95% CI): 43 (33, NA) Days
  Time (Days) to Initial Occurrence of Ulcerative OM, K-M Estimate, 25%-7%: 12 to 32 days
  Time (Days) to Initial Occurrence of Ulcerative OM, K-M Estimate, Mean (SE): 20 (2.7) Days
  Time (Days) to Initial Occurrence of Ulcerative OM, K-M Estimate, Median (95% CI): 16 (13, 31) Days
0.10 mg/kg, Completer Population, FIG. 3
  delay to onset of ulcerative OM (WHO score >1) as a function of cumulative radiation dose: showed a delay to onset of OM
0.10 mg/kg, Completer Population, at 5-<10 Gy
  Cum. Percent of Subjects with Ulcerative OM (WHO > 1): 6% (1%, 37%)
0.10 mg/kg, Completer Population, at 10-<15 Gy
  Cum. Percent of Subjects with Ulcerative OM (WHO > 1): 6% (1%, 37%)
0.10 mg/kg, Completer Population, at 15-<20 Gy
  Cum. Percent of Subjects with Ulcerative OM (WHO > 1): 38% (19%, 65%)
0.10 mg/kg, Completer Population, at 20-<25 Gy
  Cum. Percent of Subjects with Ulcerative OM (WHO > 1): 50% (29%, 75%)
0.10 mg/kg, Completer Population, at 25-<30 Gy
  Cum. Percent of Subjects with Ulcerative OM (WHO > 1): 63% (40%, 85%)
[2]
  Cum. Percent of Subjects with Severe OM (WHO > 2): 13% (3%, 41%)
  Cum. Percent of Subjects with Ulcerative OM (WHO > 1): 69% (46%, 89%)
[3]
  Cum. Percent of Subjects with Severe OM (WHO > 2): 13% (3%, 41%)
  Cum. Percent of Subjects with Ulcerative OM (WHO > 1): 69% (46%, 89%)
[4]
  Cum. Percent of Subjects with Severe OM (WHO > 2): 19% (6%, 48%)
  Cum. Percent of Subjects with Ulcerative OM (WHO > 1): 75% (53%, 92%)
[5]
  Cum. Percent of Subjects with Severe OM (WHO > 2): 25% (10%, 54%)
  Cum. Percent of Subjects with Ulcerative OM (WHO > 1): 75% (53%, 92%)
[6]
  Cum. Percent of Subjects with Severe OM (WHO > 2): 38% (19%, 65%)
  Cum. Percent of Subjects with Ulcerative OM (WHO > 1): 94% (75%, 100%)
[7]
  Cum. Percent of Subjects with Severe OM (WHO > 2): 56% (34%, 80%)
  Cum. Percent of Subjects with Ulcerative OM (WHO > 1): 94% (75%, 100%)
0.10 mg/kg, Completer Population, at 60-<65 Gy
  Cum. Percent of Subjects with Ulcerative OM (WHO > 1): 94% (75%, 100%)
0.10 mg/kg, Completer Population, at 60->65 Gy
  Cum. Percent of Subjects with Severe OM (WHO > 2): 64% (41%, 86%)
[8]
  Cum. Percent of Subjects with Severe OM (WHO > 2): 73% (48%, 92%)
  Cum. Percent of Subjects with Ulcerative OM (WHO > 1): 94% (75%, 100%)
0.10 mg/kg, Completer Population, at <5 Gy
  Cum. Percent of Subjects with Ulcerative OM (WHO > 1): 0% (0%, 0%)
0.10 mg/kg, Completer Population, at <30 Gy
  Cum. Percent of Subjects with Severe OM (WHO > 2): 6% (1%, 37%)
[9]
  Cum. Percent of Subjects with Severe OM (WHO > 2): 73% (48%, 92%)
  Cum. Percent of Subjects with Ulcerative OM (WHO > 1): 94% (75%, 100%)
0.10 mg/kg, FAS population
  Cumulative Dose of RT (Gy) at Initial Onset of Severe OM, Max: 72 Gy
  Cumulative Dose of RT (Gy) at Initial Onset of Severe OM, Mean (SD): 54 (15.6) Gy
  Cumulative Dose of RT (Gy) at Initial Onset of Severe OM, Median: 56 Gy
  Cumulative Dose of RT (Gy) at Initial Onset of Severe OM, Min: 20 Gy
  Cumulative Dose of Radiation (Gy) Prior to Initial Occurrence of Severe OM (Delay to Onset of Severe OM), K-M Estimate, Mean (SE): 54 (3.9) Gy
  Cumulative Dose of Radiation (Gy) Prior to Initial Occurrence of Severe OM, K-M Estimate, Median (95% CI): 56 (46, 70) Gy
  Time (Days) to Initial Occurrence of Severe OM, K-M Estimate, Mean (SE): 37 (2.7) Days
  Time (Days) to Initial Occurrence of Severe OM, K-M Estimate, Median (95% CI): 40 (32, NA) Days
0.10 mg/kg, FAS population, at 30-<35 Gy
  Cum. Percent of Subjects with Severe OM (WHO > 2): 18% (6%, 45%)
0.10 mg/kg, FAS population, at 35-<40 Gy
  Cum. Percent of Subjects with Severe OM (WHO > 2): 18% (6%, 45%)
0.10 mg/kg, FAS population, at 40-<45 Gy
  Cum. Percent of Subjects with Severe OM (WHO > 2): 24% (10%, 51%)
0.10 mg/kg, FAS population, at 45-<50 Gy
  Cum. Percent of Subjects with Severe OM (WHO > 2): 29% (13%, 57%)
0.10 mg/kg, FAS population, at 50-<55 Gy
  Cum. Percent of Subjects with Severe OM (WHO > 2): 41% (22%, 67%)
0.10 mg/kg, FAS population, at 55-<60 Gy
  Cum. Percent of Subjects with Severe OM (WHO > 2): 59% (37%, 81%)
0.10 mg/kg, FAS population, at 60-<65 Gy
  Cum. Percent of Subjects with Severe OM (WHO > 2): 66% (44%, 87%)
0.10 mg/kg, FAS population, at 65-<70 Gy
  Cum. Percent of Subjects with Severe OM (WHO > 2): 74% (51%, 93%)
0.10 mg/kg, FAS population, at >30 Gy
  Cum. Percent of Subjects with Severe OM (WHO > 2): 6% (1%, 35%)
0.10 mg/kg, FAS population, at ≧70 Gy
  Cum. Percent of Subjects with Severe OM (WHO > 2): 74% (51%, 93%)
0.10 mg/kg, Full Analysis Set, FIG. 1
  delay to onset of severe OM (WHO score >2) as a function of cumulative radiation dose: showed a delay to onset of OM
0.10 mg/kg, patients that completed radiation therapy, FIG. 2
  delay to onset of severe OM (WHO score >2) as a function of cumulative radiation dose: showed a delay to onset of OM
HD (0.1 mg/kg)
  treatment breaks: fewer
HD SCV-07 cohort vs. placebo
  Cox regression analysis of time to UOM initial occurrence, decrease vs. placebo: 52%
SCV-07 high dose
  Number of Days that Patients used the G-Tube: 44 days
SCV-07 high dose (n = 3/20)
  Percent of Patients with G-Tube Placement: 18%
SCV-07 low dose
  Number of Days that Patients used the G-Tube: 57 days
SCV-07 low dose (n = 4/20)
  Percent of Patients with G-Tube Placement: 20%
High dose (0.1 mg/kg) vs placebo, 0.1 mg/kg
  delay to onset of ulcerative OM (WHO scale, grades 2 to 4): more pronounced clinical benefit; also recorded: delayed
High dose (0.1 mg/kg) vs placebo, listed as γ-D-glutamyl-L-tryptophan, 0.1 mg/kg
  delay to onset of ulcerative OM (WHO scale, grades 2 to 4): showed a trend towards delay in onset
High dose vs placebo and low dose
  days of gastrostomy tube use: fewer days
Higher dose (0.1 mg/kg) vs placebo, 0.1 mg/kg
  delay to severe OM (WHO scale, grades 3 and 4), primary endpoint: showed a trend towards delay to severe OM; also recorded: delayed severe OM vs. placebo
Higher dose (0.1 mg/kg) vs placebo, listed as γ-D-glutamyl-L-tryptophan, 0.1 mg/kg
  delay to severe OM (WHO scale, grades 3 and 4), primary endpoint: showed a trend towards delay in onset
0.1 mg/kg
  gastrostomy tube placement and use: fewer G-tubes placed
  unplanned office and emergency room visits: fewer
[10]
  gastrostomy tube placement and use: less reliance on gastrostomy tube placement and use
  unplanned office and emergency room visits: fewer unplanned office and emergency room visits
Low dose (0.02 mg/kg) vs placebo
  delay to onset of ulcerative OM (WHO scale, grades 2 to 4): appeared similar or slightly better than placebo
Low dose (0.02 mg/kg) vs placebo, 0.02 mg/kg
  delay to severe OM (WHO scale, grades 3 and 4), primary endpoint: appeared to do worse than placebo and not
Patients receiving SCV-07 vs placebo
  placement of a gastrostomy feeding tube: less likely to require placement of a gastrostomy feeding tube
At 50 Gy, placebo 42%
  severe OM, percent of patients: 29%
At ≦40Gy, placebo 32%
  severe OM, percent of patients: 18%
